Laboratory results from PubChem BioAssay (NCI).
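Results reflect a 48-hour exposure of cells in 96-well plates to compound at five concentrations. TGI: total growth inhibition.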

The molecules below were run on SN12C renal (assay: growth of human tumour cells (NCI), 48 h).

CC(=O)Oc1cc2c(n(C)c1=O)-c1ccccc1C2 and Cc1c(C)c2c(c(N)c1C#N)C(=O)N(CCc1ccccc1)C2=O cannot be ordered by TGI: over 100 µM for the first, over 100 µM for the second.

COc1ccc2cc(Oc3ccc(Cl)cc3)c(=O)oc2c1 and COc1ccc(Nc2nnc(CCCCCCCCc3nnc(Nc4ccc(OC)cc4)o3)o2)cc1 cannot be ordered by TGI: over 100 µM for the first, over 100 µM for the second.

O=c1[nH]n(Cc2ccccc2Cl)c2ccc([N+](=O)[O-])cc12 and O=[n+]1c2ccccc2n([O-])c2ccccc21 cannot be ordered by TGI: over 100 µM for the first, over 100 µM for the second.

CC1=NN(C(=O)CC(=O)Nc2ccc(C)cc2)C(=O)C1N=Nc1ccc(C(=O)O)cc1 (configuration not stated) and CCOC(=O)CCC(NC(=O)c1ccc(CNc2nc3ccccc3nc2C(=O)OCC)cc1)C(=O)OCC (configuration not stated) cannot be ordered by TGI: over 100 µM for the first, over 100 µM for the second.

COC(=O)Nc1nc2ccc(S(=O)(=O)NC(CC(C)C)C(=O)OC)cc2[nH]1 (configuration not stated) and COc1cc(S(=O)(=O)Nc2nc(-c3ccc(N4C(=O)C(CC(=O)O)SC4c4ccccc4O)cc3)cs2)ccc1Cl (configuration not stated) cannot be ordered by TGI: over 100 µM for the first, over 100 µM for the second.

OC(CCN1CCCCC1)(c1ccccc1)c1ccccc1 and O=C1CC(CC(O)[C@@H]2CCCC[C@@H]2O)CC(=O)N1c1ccccc1 (some centres not stated) cannot be ordered by TGI: over 100 µM for the first, over 100 µM for the second.

Going from COC1CC(C)C(OC)C2=CC(=O)C=C(NC(=O)/C(C)=C/C=C\C(C)C(OC(N)=O)/C(C)=C\C(C)C1OC)C2=O (configuration not stated) to CC[C@](O)(CC(=O)O[C@H]1C(=O)O[C@@H]2C[C@H]3C(C)=CC(=O)[C@@H](O)[C@]3(C)[C@H]3[C@@]4(O)OC[C@]32[C@@H]1[C@@H](C)[C@H]4O)C(C)C, the TGI falls from 5.48 µM to under 0.01 µM.

O=C(Nc1cccc2ccccc12)Nn1cnnc1 and O=C1CC(=O)NC(=NN2C(=O)/C(=C/C(=O)c3ccco3)N=C2c2ccccc2)N1 cannot be ordered by TGI: over 100 µM for the first, over 100 µM for the second.

CN(C)C=Nc1cccc2nsnc12 and COc1cc(OCc2ccc3nc(-c4ccccc4)c(Cl)nc3c2)cc(OC)c1OC cannot be ordered by TGI: over 100 µM for the first, over 100 µM for the second.

First: COc1cc(S(=O)(=O)Nc2nc(-c3ccc(N4C(=O)CSC4c4cccs4)cc3)cs2)ccc1Cl (configuration not stated)
Second: CCC(C)C(C(=O)N/N=C1/SCC(=O)N1c1ccccc1)C(=O)N/N=C1/SCC(=O)N1c1ccccc1 (configuration not stated)
The TGI of the first is lower: 77.8 µM for the first, over 100 µM for the second.

COC(=O)C(C)NP(=O)(N1CC1)N1CC1 (configuration not stated) and CC(C)(C)O/C=C1/C(=O)OC2C[C@@H](O[Si](C)(C)C(C)(C)C)CC12 (some centres not stated) cannot be ordered by TGI: over 100 µM for the first, over 100 µM for the second.

Compared with N#C/C(=C\c1cn(Cc2ccccc2)c2ccccc12)c1nn(-c2ccccc2)c(N)c1C#N, OC1(CCc2ccccc2)COC(C(F)(F)F)(C(F)(F)F)C1 (configuration not stated) is higher in TGI: 38.7 µM for the first, over 100 µM for the second.

Work on Ic1ncnc2c1ncn2C1CCCO1 (configuration not stated) yielded a TGI of over 100 µM.

Each molecule was assayed on U251 CNS (assay: growth of human tumour cells (NCI), 48 h).

Cc1oc2c(c1C)S(=O)(=O)C(C#N)C(c1ccccc1)N2 (configuration not stated) and Cc1c(C)c2c(c(N)c1C#N)C(=O)N(CCc1ccccc1)C2=O cannot be ordered by TGI: over 100 µM for the first, over 100 µM for the second.

CC(=O)Oc1cc2c(n(C)c1=O)-c1ccccc1C2 and O=c1[nH]n(Cc2ccccc2Cl)c2ccc([N+](=O)[O-])cc12 cannot be ordered by TGI: over 100 µM for the first, over 100 µM for the second.

CC1=NN(C(=O)CC(=O)Nc2ccc(C)cc2)C(=O)C1N=Nc1ccc(C(=O)O)cc1 (configuration not stated) and CCOC(=O)CCC(NC(=O)c1ccc(CNc2nc3ccccc3nc2C(=O)OCC)cc1)C(=O)OCC (configuration not stated) cannot be ordered by TGI: over 100 µM for the first, over 100 µM for the second.

COC(=O)Nc1nc2ccc(S(=O)(=O)NC(CC(C)C)C(=O)OC)cc2[nH]1 (configuration not stated) and COc1cc(S(=O)(=O)Nc2nc(-c3ccc(N4C(=O)C(CC(=O)O)SC4c4ccccc4O)cc3)cs2)ccc1Cl (configuration not stated) cannot be ordered by TGI: over 100 µM for the first, over 100 µM for the second.

OC(CCN1CCCCC1)(c1ccccc1)c1ccccc1 and O=[n+]1c2ccccc2n([O-])c2ccccc21 cannot be ordered by TGI: over 100 µM for the first, over 100 µM for the second.

First: COC1CC(C)C(OC)C2=CC(=O)C=C(NC(=O)/C(C)=C/C=C\C(C)C(OC(N)=O)/C(C)=C\C(C)C1OC)C2=O (configuration not stated)
Second: CC[C@](O)(CC(=O)O[C@H]1C(=O)O[C@@H]2C[C@H]3C(C)=CC(=O)[C@@H](O)[C@]3(C)[C@H]3[C@@]4(O)OC[C@]32[C@@H]1[C@@H](C)[C@H]4O)C(C)C
The TGI of the first is higher: 11 µM for the first, under 0.01 µM for the second.

O=C(Nc1cccc2ccccc12)Nn1cnnc1 and O=C1CC(=O)NC(=NN2C(=O)/C(=C/C(=O)c3ccco3)N=C2c2ccccc2)N1 cannot be ordered by TGI: over 100 µM for the first, over 100 µM for the second.

First: CN(C)C=Nc1cccc2nsnc12
Second: COc1cc(OCc2ccc3nc(-c4ccccc4)c(Cl)nc3c2)cc(OC)c1OC
The TGI of the first is higher: over 100 µM for the first, 52.3 µM for the second.

COc1cc(S(=O)(=O)Nc2nc(-c3ccc(N4C(=O)CSC4c4cccs4)cc3)cs2)ccc1Cl (configuration not stated) and CCC(C)C(C(=O)N/N=C1/SCC(=O)N1c1ccccc1)C(=O)N/N=C1/SCC(=O)N1c1ccccc1 (configuration not stated) cannot be ordered by TGI: over 100 µM for the first, over 100 µM for the second.

COC(=O)C(C)NP(=O)(N1CC1)N1CC1 (configuration not stated) and O=C1CC(CC(O)[C@@H]2CCCC[C@@H]2O)CC(=O)N1c1ccccc1 (some centres not stated) cannot be ordered by TGI: over 100 µM for the first, over 100 µM for the second.

Going from N#C/C(=C\c1cn(Cc2ccccc2)c2ccccc12)c1nn(-c2ccccc2)c(N)c1C#N to COc1ccc(Nc2nnc(CCCCCCCCc3nnc(Nc4ccc(OC)cc4)o3)o2)cc1, the TGI rises from 26.5 µM to over 100 µM.

Ic1ncnc2c1ncn2C1CCCO1 (configuration not stated) and CC(C)(C)O/C=C1/C(=O)OC2C[C@@H](O[Si](C)(C)C(C)(C)C)CC12 (some centres not stated) cannot be ordered by TGI: over 100 µM for the first, over 100 µM for the second.

Going from CC1(C)C2CCC3=C(CCC4(C)C5C[C@](C)(C(=O)O)CC[C@]5(C)CC[C@]34C)[C@@]2(C)CC[C@@H]1O (some centres not stated) to OC1(CCc2ccccc2)COC(C(F)(F)F)(C(F)(F)F)C1 (configuration not stated), the TGI rises from 27.1 µM to over 100 µM.

Each molecule was assayed on RPMI-8226 leukemia (assay: growth of human tumour cells (NCI), 48 h).

CC(=O)Oc1cc2c(n(C)c1=O)-c1ccccc1C2 and O=c1[nH]n(Cc2ccccc2Cl)c2ccc([N+](=O)[O-])cc12 cannot be ordered by TGI: over 100 µM for the first, over 100 µM for the second.

COc1ccc2cc(Oc3ccc(Cl)cc3)c(=O)oc2c1 and CCOC(=O)CCC(NC(=O)c1ccc(CNc2nc3ccccc3nc2C(=O)OCC)cc1)C(=O)OCC (configuration not stated) cannot be ordered by TGI: over 100 µM for the first, over 100 µM for the second.

CC1=NN(C(=O)CC(=O)Nc2ccc(C)cc2)C(=O)C1N=Nc1ccc(C(=O)O)cc1 (configuration not stated) and COC(=O)Nc1nc2ccc(S(=O)(=O)NC(CC(C)C)C(=O)OC)cc2[nH]1 (configuration not stated) cannot be ordered by TGI: over 100 µM for the first, over 100 µM for the second.
